Laboratory results published in BindingDB's records for doi:10.1021/jm00169a007 (University of Arizona, 1990).
Positions of bridges follow the written chain, without caps; N, C: chain ends. Residues, ends and D or L forms follow the SMILES beside them.

Test: Binding affinity against Opioid receptor delta 1 in guinea pig brain homogenate using [3H]- DPDPE as radioligand

| Compound | IC50 |
| --- | --- |
| CC(C)C[C@@H]1NC(=O)[C@H](CCCCN)NC(=O)[C@@H]2CCCN2C(=O)[C@H](CCCNC(=N)N)NC(=O)[C@H](NC(=O)[C@H](CCCNC(=N)N)NC(=O)[C@H](CCCNC(=N)N)NC(=O)[C@H](CC(C)C)NC(=O)[C@H](Cc2ccccc2)NC(=O)CNC(=O)CNC(=O)[C@@H](N)Cc2ccc(O)cc2)CSSC[C@@H](C(N)=O)NC1=O | 104 nM |
| C[C@H]1NC(=O)[C@H](CCCNC(=N)N)NC(=O)[C@H](CCCNC(=N)N)NC(=O)[C@@H](NC(=O)[C@H](Cc2ccccc2)NC(=O)CNC(=O)CNC(=O)[C@@H](N)Cc2ccc(O)cc2)CSSC[C@@H](C(N)=O)NC(=O)[C@@H]2CCCN2C(=O)[C@H](CCCNC(=N)N)NC1=O | 19 nM |
| CC[C@H](C)[C@@H]1NC(=O)[C@H](CCCNC(=N)N)NC(=O)[C@H](CCCNC(=N)N)NC(=O)[C@@H](NC(=O)[C@H](Cc2ccccc2)NC(=O)CNC(=O)CNC(=O)[C@@H](N)Cc2ccc(O)cc2)CSSC[C@@H](C(N)=O)NC(=O)[C@@H]2CCCN2C(=O)[C@H](CCCNC(=N)N)NC1=O (H-YGGFCRRIRPC-NH2; disulfide 5-11) | 1.6 nM |
| CC[C@H](C)[C@H](NC(=O)[C@H](CCCNC(=N)N)NC(=O)[C@H](CCCNC(=N)N)NC(=O)[C@H](CC(C)C)NC(=O)[C@H](Cc1ccccc1)NC(=O)CNC(=O)CNC(=O)[C@@H](N)Cc1ccc(O)cc1)C(=O)N[C@@H](CCCNC(=N)N)C(=O)N1CCC[C@H]1C(=O)N[C@@H](CCCCN)C(=O)N[C@@H](CC(C)C)C(=O)N[C@@H](CCCCN)C(N)=O | 4.1 nM |
| CC(C)C[C@H](NC(=O)[C@H](Cc1ccccc1)NC(=O)CNC(=O)CNC(=O)[C@@H](N)Cc1ccc(O)cc1)C(=O)N[C@@H](CCCNC(=N)N)C(=O)N[C@@H](CCCNC(=N)N)C(=O)N[C@@H]1CSSC[C@H](C(N)=O)NC(=O)[C@H](CC(C)C)NC(=O)[C@H](CCCCN)NC(=O)[C@@H]2CCCN2C(=O)[C@H](CCCNC(=N)N)NC1=O | 14 nM |
| CC(C)C[C@@H]1NC(=O)[C@H](CCCCN)NC(=O)[C@@H]2CCCN2C(=O)[C@H](CCCNC(=N)N)NC(=O)[C@@H](NC(=O)[C@H](CCCNC(=N)N)NC(=O)[C@H](CCCNC(=N)N)NC(=O)[C@H](CC(C)C)NC(=O)[C@H](Cc2ccccc2)NC(=O)CNC(=O)CNC(=O)[C@@H](N)Cc2ccc(O)cc2)CSSC[C@@H](C(N)=O)NC1=O | 4 nM |
| CC[C@H](C)[C@H](NC(=O)[C@H](CCCNC(=N)N)NC(=O)[C@H](CCCNC(=N)N)NC(=O)[C@H](CC(C)C)NC(=O)[C@H](Cc1ccccc1)NC(=O)CNC(=O)CNC(=O)[C@@H](N)Cc1ccc(O)cc1)C(=O)N[C@@H](CCCNC(=N)N)C(=O)N1CCC[C@H]1C(=O)N[C@@H](CCCCN)C(N)=O | 7 nM |
